Experimental data reported in patent publication US10071976B2, “Small molecule fatty acid synthase inhibitors” (Sanford Burnham Prebys Medical Discovery Institute, priority 2014, dated 2018).
pIC50: −log10 of the molar value.

Biological target: FASN-TE (Homo sapiens, UniProt P49327)
Assay: In-vitro biochemical assay measuring FAS-TE inhibition (OMFH substrate, fluorescence)
Method: Min wells: Substrate+No enzyme+DMSO, Max wells: Substrate+Enzyme+DMSO, Sample wells: Substrate+Enzyme+Test compounds, Reference compound: Orlistat (make a fresh 10 mM stock in DMSO each time). 384-well black, low-volume plate (Greiner #784076)
Assay Protocol: • 1) ECHO transfer 160 nL of 125× Compound (or DMSO for control wells) per well. • 2) For Max and Sample wells: Add 10 μL of Enzyme (2×; 1.8 μM) prepared in RXN Buffer. For Min wells: Add 10 μL of RXN Buffer (No Enzyme). • 3) For all wells: Add 10 μL of Substrate (2×; 20 μM) prepared in diH2O+10% DMSO. • 4) Centrifuge plate for 1 minute at 1,000 rpm. • 5) Measure fluorescence every 5 minutes for 1-1.5 hours using the BMG POLARstar (ex 485 nm/em 520 nm; Gain=1015; 25 flashes). • 6) All volumes can be adjusted but the final DMSO concentration should be kept at about 6%.
Data Analysis: • 1) Calculate slopes and express as % Activity (Min wells=0%; Max wells=100%). • 2) Then, using Prism, calculate the IC50 values.

Sequence of FASN-TE (P49327 2207-2511 limits assumed): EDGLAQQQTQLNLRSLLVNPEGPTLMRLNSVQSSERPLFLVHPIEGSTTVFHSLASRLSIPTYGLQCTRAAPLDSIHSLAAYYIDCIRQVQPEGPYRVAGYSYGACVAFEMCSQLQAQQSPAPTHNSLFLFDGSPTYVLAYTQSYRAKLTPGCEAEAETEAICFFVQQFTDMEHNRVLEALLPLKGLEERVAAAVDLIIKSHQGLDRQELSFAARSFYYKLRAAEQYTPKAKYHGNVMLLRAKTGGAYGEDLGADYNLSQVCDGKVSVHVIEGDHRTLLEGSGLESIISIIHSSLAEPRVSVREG

Structure (SMILES) | pIC50
O=C(Nc1nc(-c2ccc(S(=O)(=O)N3CCCC3)cc2)cs1)C1COc2ccccc2O1 (stereo not drawn) [Compound 63] | 5.88
O=C(Nc1nc(-c2ccc(S(=O)(=O)N3CCCC3)cc2)cs1)c1ccco1 [Compound 4] | 5.33
CCCCC(=O)Nc1nc(-c2ccc(S(=O)(=O)N3CCCCC3C)cc2)cs1 (stereo not drawn) [Compound 45] | 6.42
CCN(CC)S(=O)(=O)c1ccc(-c2csc(C(C)C)n2)cc1 [Compound 101] | 4.94
O=C(Nc1nc(-c2ccc(S(=O)(=O)N3CCOCC3)cc2)cs1)C1CCCC1 [Compound 19] | < 4.10
CN(C)S(=O)(=O)c1ccc(-c2csc(NC(=O)C3CCCC3)n2)cc1 [Compound 43] | 5.80
O=C(Nc1nc(-c2ccc(S(=O)(=O)N3CCCC3)cc2)cs1)C1CCC1 [Compound 29] | 6.40
CCN(CC)S(=O)(=O)c1ccc(-c2csc(-c3ccc(Br)cc3)n2)cc1 [Compound 105] | ≤ 4.10
CCc1nc(-c2ccc(S(=O)(=O)N(CC)CC)cc2)cs1 [Compound 100] | ≤ 4.10
CCCCC(=O)Nc1nc(-c2ccc(S(=O)(=O)N3CCSCC3)cc2)cs1 [Compound 12] | 6.15
CC1CCN(S(=O)(=O)c2ccc(-c3csc(NC(=O)C(C)C)n3)cc2)CC1 [Compound 24] | 6.18
O=S(=O)(c1ccc(-c2csc(N3CCCC3)n2)cc1)N1CCOCC1 [Compound 98] | 5.93
CCN(CC)S(=O)(=O)c1ccc(-c2csc(Cc3ccccc3F)n2)cc1 [Compound 109] | 5.76
CCN(CC)S(=O)(=O)c1ccc(-c2csc(-c3cccc(Br)c3)n2)cc1 [Compound 107] | ≤ 4.10
CCC(CC)C(=O)Nc1nc(-c2ccc(S(=O)(=O)N(CC)CC)cc2)cs1 [Compound 55] | 6.48
CN(C)S(=O)(=O)c1ccc(-c2csc(NC(=O)C3CC3)n2)cc1 [Compound 41] | 5.92
CCN(CC)S(=O)(=O)c1ccc(-c2csc(C(C)(C)C)n2)cc1 [Compound 102] | 4.90
CC(=O)Nc1nc(-c2ccc(S(=O)(=O)N3CCSCC3)cc2)cs1 [Compound 13] | < 4.10
CCC(=O)Nc1nc(-c2ccc(S(=O)(=O)N3CCC(C)CC3)cc2)cs1 [Compound 23] | < 4.10
CCCC(=O)Nc1nc(-c2ccc(S(=O)(=O)N3CCCCC3C)cc2)cs1 (stereo not drawn) [Compound 46] | 6.24
O=S(=O)(c1ccc(-c2csc(-c3ccc(F)cc3)n2)cc1)N1CCOCC1 [Compound 116] | 5.83

Structure (SMILES) | pIC50
CCN(CC)S(=O)(=O)c1ccc(-c2csc(NC(=O)CC(C)C)n2)cc1 [Compound 99] | 4.72
O=S(=O)(c1ccc(-c2csc(-c3cccnc3)n2)cc1)N1CCOCC1 [Compound 81] | 5.67
CCC(C)C(=O)Nc1nc(-c2ccc(S(=O)(=O)N3CCCCC3C)cc2)cs1 (stereo not drawn) [Compound 44] | 6.54
CCC(CC)C(=O)Nc1nc(-c2ccc(S(=O)(=O)N3CCCC3)cc2)cs1 [Compound 49] | 6.59
CN(C)S(=O)(=O)c1ccc(-c2csc(NC(=O)C3CCC3)n2)cc1 [Compound 42] | 5.85
O=C(COc1cccc(Cl)c1)Nc1nc(-c2ccc(S(=O)(=O)N3CCOCC3)cc2)cs1 [Compound 2] | 5.35
CCN(CC)S(=O)(=O)c1ccc(-c2csc(Cc3cccc(F)c3)n2)cc1 [Compound 110] | 5.50
CC(C)C(=O)Nc1nc(-c2ccc(S(=O)(=O)N3CCCC3)cc2)cs1 [Compound 27] | 6.56
CCC(=O)Nc1nc(-c2ccc(S(=O)(=O)N(C)C)cc2)cs1 [Compound 40] | 5.96
CCN(CC)S(=O)(=O)c1ccc(-c2csc(NC(=O)C3CCCCC3)n2)cc1 [Compound 38] | 5.54
O=C(COc1ccccc1)Nc1nc(-c2ccc(S(=O)(=O)N3CCOCC3)cc2)cs1 [Compound 3] | 6.38
CC(C)(C)OC(=O)Nc1nc(-c2ccc(S(=O)(=O)N3CCOCC3)cc2)cs1 [Compound 21] | 4.54
CC(C)CC(=O)Nc1nc(-c2ccc(S(=O)(=O)N3CCCC3)cc2)cs1 [Compound 52] | 5.80
CC(C)c1nc(-c2ccc(S(=O)(=O)N3CCOCC3)cc2)cs1 [Compound 115] | 4.66
O=C(Nc1nc(-c2ccc(S(=O)(=O)N3CCOCC3)cc2)cs1)c1cccs1 [Compound 10] | 4.48
O=C(Nc1nc(-c2ccc(S(=O)(=O)N3CCCC3)cc2)cs1)C1CC1 [Compound 28] | 6.25
O=S(=O)(c1ccc(-c2csc(Cc3ccccc3)n2)cc1)N1CCOCC1 [Compound 96] | 6.18
CCC(=O)Nc1nc(-c2ccc(S(=O)(=O)N(CC)CC)cc2)cs1 [Compound 31] | 5.37
CN(C)S(=O)(=O)c1ccc(-c2csc(-c3cccnc3)n2)cc1 [Compound 83] | 5.28
CCC(=O)Nc1nc(-c2ccc(S(=O)(=O)N3CCOCC3)cc2)cs1 [Compound 14] | 5.35
CCN(CC)S(=O)(=O)c1ccc(-c2csc(-c3ccc(Cl)cc3)n2)cc1 [Compound 104] | ≤ 4.10

Structure (SMILES) | pIC50
CCC(C)C(=O)Nc1nc(-c2ccc(S(=O)(=O)N3CCOCC3)cc2)cs1 (stereo not drawn) [Compound 15] | 6.51
CCN(CC)S(=O)(=O)c1ccc(-c2csc(Cc3ccc(F)cc3)n2)cc1 [Compound 111] | 5.62
CCC(C)C(=O)Nc1nc(-c2ccc(S(=O)(=O)N3CCC(C)CC3)cc2)cs1 (stereo not drawn) [Compound 60] | 6.39
COc1ccccc1C(=O)Nc1nc(-c2ccc(S(=O)(=O)N3CCOCC3)cc2)cs1 [Compound 5] | 4.93
CCCCCC(=O)Nc1nc(-c2ccc(S(=O)(=O)N(CC)CC)cc2)cs1 [Compound 53] | 6.70
CCCCCCC(=O)Nc1nc(-c2ccc(S(=O)(=O)N(CC)CC)cc2)cs1 [Compound 54] | 5.85
CCN(CC)S(=O)(=O)c1ccc(-c2csc(NC(=O)C(C)C)n2)cc1 [Compound 33] | 6.55
CCN(CC)S(=O)(=O)c1ccc(-c2csc(C)n2)cc1 [Compound 82] | ≤ 4.10
O=C(Nc1nc(-c2ccc(S(=O)(=O)N3CCOCC3)cc2)cs1)C1CCC1 [Compound 18] | 5.44
CCCCCCC(=O)Nc1nc(-c2ccc(S(=O)(=O)N3CCC(C)CC3)cc2)cs1 [Compound 58] | 5.35
O=C(Nc1nc(-c2ccc(S(=O)(=O)N3CCOCC3)cc2)cs1)c1ccco1 [Compound 11] | 4.43
CCC(C)C(=O)Nc1nc(-c2ccc(S(=O)(=O)N3CCCC3)cc2)cs1 (stereo not drawn) [Compound 48] | 6.82
CC(C)CC(=O)Nc1nc(-c2ccc(S(=O)(=O)N3CCC(C)CC3)cc2)cs1 [Compound 59] | 4.22
CCN(CC)S(=O)(=O)c1ccc(-c2csc(Cc3ccccc3OC)n2)cc1 [Compound 113] | 5.16
O=C(Nc1nc(-c2ccc(S(=O)(=O)N3CCCC3)cc2)cs1)C1CCCC1 [Compound 30] | 6.14
CCN(CC)S(=O)(=O)c1ccc(-c2csc(NC(=O)C3CC3)n2)cc1 [Compound 35] | 6.00
CC(C)C(=O)Nc1nc(-c2ccc(S(=O)(=O)N(C)C)cc2)cs1 [Compound 39] | 6.24
CC1CCN(S(=O)(=O)c2ccc(-c3csc(NC(=O)C4CC4)n3)cc2)CC1 [Compound 25] | < 4.10
CCN(CC)S(=O)(=O)c1ccc(-c2csc(Cc3cccc(I)c3)n2)cc1 [Compound 112] | 5.30
CC(C)C(=O)Nc1nc(-c2ccc(S(=O)(=O)N3CCOCC3)cc2)cs1 [Compound 6] | 6.09
CCN(CC)S(=O)(=O)c1ccc(-c2csc(-c3ccc(F)cc3)n2)cc1 [Compound 103] | 5.95
